Assay results from PMC2574850 (Cellular signalling, 2008).

Molecular target: T1, PH ([325-451]ASAP1) (Mus musculus, UniProt Q9QWY8)
T1 sequence (Q9QWY8 325-451): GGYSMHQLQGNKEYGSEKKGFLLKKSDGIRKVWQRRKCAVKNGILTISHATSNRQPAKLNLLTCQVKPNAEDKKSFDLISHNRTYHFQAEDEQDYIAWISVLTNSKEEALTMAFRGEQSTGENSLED
Experiment: isothermal titration calorimetry
Type: binding

Kd: 75 ± 15 µM
SMILES: O=P(O)(O)O[C@@H]1[C@H](O)[C@H](O)[C@@H](OP(=O)(O)O)[C@H](OP(=O)(O)O)[C@H]1O [IP3]
